Assay [1] concerns the target [3H]Dopamine reuptake in rat brain tissue (Rattus norvegicus, UniProt P23977). The experiment in a line: biochemical.
Assay [2] deals with T1, [3H]Noradenaline reuptake in rat brain tissue (Rattus norvegicus).
T1 construct: in rat brain tissue; from tissue; host or cells: rat brain tissue
The experiment in a line: in vitro [3H]noradrenaline reuptake inhibition in rat brain tissue. The format is biochemical. To be noted: monoamine reuptake inhibition, means of ≧3 separate determinations.

T1 sequence (Q63380 1-617): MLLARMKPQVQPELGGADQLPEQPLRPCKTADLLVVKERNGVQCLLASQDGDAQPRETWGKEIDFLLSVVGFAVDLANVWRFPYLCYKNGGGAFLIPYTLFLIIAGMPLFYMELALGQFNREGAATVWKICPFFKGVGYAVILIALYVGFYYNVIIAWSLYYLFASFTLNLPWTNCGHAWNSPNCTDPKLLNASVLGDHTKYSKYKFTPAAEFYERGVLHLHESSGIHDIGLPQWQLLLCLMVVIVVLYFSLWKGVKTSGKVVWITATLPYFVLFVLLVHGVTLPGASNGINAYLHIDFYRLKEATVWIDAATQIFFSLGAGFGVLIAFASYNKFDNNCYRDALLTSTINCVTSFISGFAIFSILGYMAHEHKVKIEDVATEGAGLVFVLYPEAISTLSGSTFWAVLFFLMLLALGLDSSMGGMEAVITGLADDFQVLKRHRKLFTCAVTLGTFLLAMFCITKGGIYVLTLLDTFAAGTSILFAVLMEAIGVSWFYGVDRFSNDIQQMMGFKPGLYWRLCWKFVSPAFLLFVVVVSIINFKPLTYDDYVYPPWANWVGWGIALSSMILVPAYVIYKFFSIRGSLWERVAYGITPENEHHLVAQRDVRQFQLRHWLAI
Chain of [3H]Dopamine reuptake in rat brain tissue (P23977 whole entry): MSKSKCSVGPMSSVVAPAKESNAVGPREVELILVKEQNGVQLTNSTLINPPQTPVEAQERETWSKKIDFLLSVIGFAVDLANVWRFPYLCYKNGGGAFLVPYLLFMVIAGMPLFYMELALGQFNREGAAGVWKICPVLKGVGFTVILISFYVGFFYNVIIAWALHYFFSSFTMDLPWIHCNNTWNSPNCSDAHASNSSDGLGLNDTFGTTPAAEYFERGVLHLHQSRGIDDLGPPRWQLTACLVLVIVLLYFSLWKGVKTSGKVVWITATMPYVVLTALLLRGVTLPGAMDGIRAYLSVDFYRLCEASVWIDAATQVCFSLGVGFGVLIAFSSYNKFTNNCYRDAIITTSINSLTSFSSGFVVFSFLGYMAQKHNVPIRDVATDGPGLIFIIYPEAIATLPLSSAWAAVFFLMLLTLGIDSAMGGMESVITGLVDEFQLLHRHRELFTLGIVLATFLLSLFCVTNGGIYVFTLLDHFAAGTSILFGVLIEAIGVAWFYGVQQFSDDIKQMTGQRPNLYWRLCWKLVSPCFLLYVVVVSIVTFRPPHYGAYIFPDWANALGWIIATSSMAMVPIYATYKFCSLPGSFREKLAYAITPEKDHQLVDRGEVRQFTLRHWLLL

Take `CC(NC(C)(C)C)C(=O)c1cccc(Cl)c1` (centres unmarked) [Bupropion]: the Ki – broadly, a dissociation constant, usually derived from enzyme kinetics or from competition with a known ligand – was found to be 0.409 µM in assay [1] and 2590 nM in assay [2].
